Some test systems named below: HL-60(TB) leukemia; HOP-62 NSCLC; HS 578T breast; IGROV1 ovarian; K-562 leukemia; PC-3 prostate; SK-MEL-5 melanoma; U251 CNS; HCT-116 colon; UACC-257 melanoma.
Test in all cases: NCI anticancer screen, dose series, 48 h

TGI and GI50 data for nine compounds are collected here from PubChem BioAssay (NCI).

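Growth conditions: 96-well plates. Treatment: test compound, 48 hours, 5 concentrations. Analysis: linear interpolation between bracketing concentrations; unreached endpoints set to highest concentration. At the GI50, growth is halved. Definition used: TGI = concentration required for complete inhibition of growth.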

With `CC1=NC2(CCCCC2)N(Cl)C(=O)C1SC#N` (stereo unspecified), the TGI with HL-60(TB) leukemia is greater than 100 µM; in the experiment on HOP-62 NSCLC, 47.8 µM; with HS 578T breast it was greater than 100 µM; with IGROV1 ovarian it was 34.4 µM; in the experiment on K-562 leukemia, 41.4 µM; with PC-3 prostate, 32.1 µM. Besides, the TGI with SK-MEL-5 melanoma worked out at 39.8 µM; in the experiment on U251 CNS, 37.4 µM.
As to `CN1c2ccccc2C(=O)NC12CCN(Cc1ccccc1)CC2`, the TGI in the experiment on HCT-116 colon, in the experiment with HL-60(TB) leukemia, in the experiment with HOP-62 NSCLC, with HS 578T breast, with IGROV1 ovarian and in the experiment with SK-MEL-5 melanoma was greater than 100 µM each time. The TGI in the experiment on U251 CNS and in the experiment on UACC-257 melanoma was greater than 100 µM throughout.
Take `COC(=O)COc1ccc(/C=C2\N=C(c3ccccc3)N(c3cc(C(F)(F)F)ccc3Cl)C2=O)cc1`: the GI50 with HCT-116 colon was 38.4 µM; in the experiment with HL-60(TB) leukemia it was 27.3 µM; with HOP-62 NSCLC it was 64.9 µM; in the experiment on HS 578T breast, 83.7 µM; in the experiment on IGROV1 ovarian, 29.1 µM; with K-562 leukemia it was 47.3 µM. In addition, the GI50 with PC-3 prostate is 44.8 µM; in the experiment with SK-MEL-5 melanoma it was 46.1 µM; in the experiment with U251 CNS it was 46.4 µM. Also, the TGI in the experiment on HCT-116 colon is greater than 100 µM; in the experiment on HL-60(TB) leukemia it was 63.4 µM; with HOP-62 NSCLC, greater than 100 µM; with HS 578T breast it was greater than 100 µM; with IGROV1 ovarian it was greater than 100 µM; with K-562 leukemia, greater than 100 µM. The TGI in the experiment with PC-3 prostate, in the experiment with SK-MEL-5 melanoma and in the experiment on U251 CNS was greater than 100 µM each time.
In the case of `CC1(C)OC[C@@H]([C@@]2(CO[Si](C)(C)C(C)(C)C)CC=CC(=O)O2)O1`, the GI50 was 17.6 µM in the experiment with HCT-116 colon; 31 µM in the experiment on HOP-62 NSCLC; 30.4 µM in the experiment with HS 578T breast; 23.1 µM with IGROV1 ovarian; 26.7 µM with K-562 leukemia; 19.6 µM with PC-3 prostate. The GI50 was 19 µM in the experiment with SK-MEL-5 melanoma, 31.2 µM in the experiment with U251 CNS and 13.8 µM in the experiment on UACC-257 melanoma. Besides, the TGI in the experiment with HCT-116 colon is 44.6 µM; with HOP-62 NSCLC, 53.1 µM; with HS 578T breast, 89.4 µM; in the experiment on IGROV1 ovarian, 49.6 µM; with K-562 leukemia, greater than 100 µM; in the experiment with PC-3 prostate, 74.2 µM. Also, the TGI in the experiment with SK-MEL-5 melanoma is 36.3 µM; in the experiment on U251 CNS, greater than 100 µM; with UACC-257 melanoma it was 33.2 µM.
As for `N#Cc1ccccc1NC(=O)/C(=N\NC(=O)c1ccncc1)C(c1cnc2ccc([N+](=O)[O-])cc2n1)[N+](=O)[O-]` (stereo unspecified), the TGI with HCT-116 colon, with HL-60(TB) leukemia, in the experiment on HOP-62 NSCLC, in the experiment with HS 578T breast, in the experiment with IGROV1 ovarian and in the experiment on PC-3 prostate was greater than 100 µM each time. Also, the TGI in the experiment with SK-MEL-5 melanoma, with U251 CNS and in the experiment on UACC-257 melanoma was greater than 100 µM throughout.
`CC(=O)C1CC2(c3ccc(C)cc3)C(c3ccc(C)cc3)=C(c3ccc(C)cc3)C1(c1ccc(C)cc1)S2=O` (stereo unspecified): the GI50 was greater than 100 µM in the experiment with HCT-116 colon; greater than 100 µM with HOP-62 NSCLC; greater than 100 µM with HS 578T breast; 70.2 µM in the experiment with IGROV1 ovarian; greater than 100 µM in the experiment on K-562 leukemia; greater than 100 µM with PC-3 prostate. Moreover, the GI50 in the experiment on SK-MEL-5 melanoma, in the experiment on U251 CNS and with UACC-257 melanoma was greater than 100 µM throughout. Moreover, the TGI in the experiment with HCT-116 colon, with HOP-62 NSCLC, in the experiment with HS 578T breast, in the experiment on IGROV1 ovarian, in the experiment with K-562 leukemia and with PC-3 prostate was greater than 100 µM each time. For the same compound, the TGI in the experiment with SK-MEL-5 melanoma, in the experiment with U251 CNS and in the experiment with UACC-257 melanoma was greater than 100 µM in each case.
On to `CCCCCCCCCNCCCCCCCCC`, for which the GI50 is 1.77 µM in the experiment on HCT-116 colon; 1.93 µM in the experiment with HOP-62 NSCLC; 1.83 µM with HS 578T breast; 1.89 µM in the experiment on IGROV1 ovarian; 2.03 µM with PC-3 prostate; 1.77 µM in the experiment with SK-MEL-5 melanoma. The GI50 was 1.71 µM in the experiment with U251 CNS and 1.93 µM in the experiment with UACC-257 melanoma. In addition, the TGI was 3.16 µM in the experiment on HCT-116 colon; 3.38 µM in the experiment with HOP-62 NSCLC; 4.16 µM in the experiment with HS 578T breast; 3.8 µM in the experiment with IGROV1 ovarian; 4.7 µM in the experiment on PC-3 prostate; 3.2 µM with SK-MEL-5 melanoma. Besides, the TGI with U251 CNS is 3.15 µM; in the experiment on UACC-257 melanoma it was 3.61 µM.
Consider `CCOC(=O)Cc1csc(/N=C2\NC(=O)/C(=C3\C(=O)N(C)c4ccccc43)S2)n1`, for which the GI50 in the experiment on HCT-116 colon is 28.1 µM; in the experiment with HOP-62 NSCLC, 30.1 µM; in the experiment with HS 578T breast, 66.7 µM; in the experiment with IGROV1 ovarian, 20.6 µM; in the experiment with K-562 leukemia, 36 µM; with PC-3 prostate it was 34.1 µM. The GI50 with SK-MEL-5 melanoma was 38 µM; in the experiment with U251 CNS it was 33.6 µM; in the experiment on UACC-257 melanoma, 79.1 µM. The TGI in the experiment on HCT-116 colon was 60.1 µM; in the experiment on HOP-62 NSCLC, 87.9 µM; in the experiment with HS 578T breast, greater than 100 µM; in the experiment with IGROV1 ovarian, 69.2 µM; in the experiment on K-562 leukemia, greater than 100 µM; in the experiment on PC-3 prostate, greater than 100 µM. In addition, the TGI in the experiment on SK-MEL-5 melanoma, with U251 CNS and in the experiment with UACC-257 melanoma was greater than 100 µM each time.
As to `N#CC1=C(N)N=C(N2CCCCC2)C(C#N)C12Nc1ccccc1S2` (stereo unspecified), the GI50 in the experiment with HCT-116 colon is 23 µM; in the experiment on HL-60(TB) leukemia it was 85.4 µM; in the experiment with HOP-62 NSCLC, 27.7 µM; in the experiment on IGROV1 ovarian, 58.9 µM; in the experiment on K-562 leukemia, greater than 100 µM; in the experiment with PC-3 prostate, 50.5 µM. The GI50 in the experiment with SK-MEL-5 melanoma was 19.6 µM; in the experiment with U251 CNS, 17 µM; with UACC-257 melanoma it was 20.9 µM. Further, the TGI in the experiment on HCT-116 colon, in the experiment on HL-60(TB) leukemia, with HOP-62 NSCLC, in the experiment with IGROV1 ovarian, with K-562 leukemia and in the experiment with PC-3 prostate was greater than 100 µM in each case. The TGI in the experiment with SK-MEL-5 melanoma was 42.3 µM; with U251 CNS it was greater than 100 µM; in the experiment on UACC-257 melanoma, 51 µM.
